pIC50: −log10 of the molar value. Where two headings read alike, the source gives them in different places.
Experiments:
[1] = target: His-tagged KRAS G12D protein (Homo sapiens (Human), UniProt P01116, G12D); assay: KRAS G12D TR-FRET Assay; assay type: binding; details: read-out: KRAS G12D Binding IC50
Procedure, shortened: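 His-tagged KRAS G12D (diluted to 20 nM in pH 7.4 HEPES buffer with 10 mM MgCl2 and 10 μM GDP) was preincubated with titrated compound for 30 min at room temperature. Biotinylated KRPep-2d peptide (diluted to 20 nM) was then added for 1 h, and displacement was monitored by TR-FRET.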

[2] = target: GDP-bound KRAS protein (aa 1-169), containing both G12D and C118A amino acid substitutions (Homo sapiens (Human), UniProt P01116, C118A/G12D); assay: KRAS G12D Coupled Nucleotide Exchange Assay; assay type: biochemical; details: read-out: KRAS G12D Coupled Exchange IC50
Chain of GDP-bound KRAS protein (aa 1-169), containing both G12D and C118A amino acid substitutions (P01116 other isoform, or with tags, fused parts or gaps G12D/C118A): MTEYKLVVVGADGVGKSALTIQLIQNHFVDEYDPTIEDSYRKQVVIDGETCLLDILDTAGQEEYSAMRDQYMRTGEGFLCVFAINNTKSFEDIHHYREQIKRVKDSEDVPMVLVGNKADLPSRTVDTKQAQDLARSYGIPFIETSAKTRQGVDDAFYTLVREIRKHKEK

[3] = test system: Phosphorylation of ERK1/2 in AsPC-1 cells; assay: Phospho-ERK1/2 MSD Assay; assay type: cell-based, human; details: read-out: 2 h p-ERK (AsPC-1 cells), IC50
Procedure, shortened: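 Read-out: MSD electrochemiluminescent detection of phosphorylated ERK1/2 in whole-cell lysates, fitted to a 4-parameter logistic curve for IC50. Prior to lysis, AsPC-1 cells (25,000 per well) received a 2 h compound dose-response at 37 °C.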

AsPC-1 cells = assay: AsPC-1 CTG Assay (CellTiter-Glo cell viability); assay type: cell-based, human; details: AsPC-1, 72 h, first value of the cell, read-out: G12D/C/V Cell Proliferation CTG (72 h) AsPC-1
Procedure, shortened: (§1)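 Human pancreatic AsPC-1 or colon SW620 cells in RPMI 1640 with 10% FBS, seeded overnight, then exposed to serially diluted compound for 72 h at 37 °C. CellTiter-Glo luminescence normalized to DMSO control; IC50 from a 4-parameter logistic model.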

SW620 cells = assay: SW620 CTG Assay (CellTiter-Glo cell viability); assay type: cell-based, human; details: SW620, 72 h, third value of the cell, read-out: G12D/C/V Cell Proliferation CTG (72 h) SW620
Procedure, shortened: as §1

MIA PaCa-2 cells = assay: MIA PaCa-2 CTG Assay (CellTiter-Glo cell viability); assay type: cell-based, human; details: Mia PaCa-2, 72 h, second value of the cell, read-out: G12D/C/V Cell Proliferation CTG (72 h) Mia PaCa-2
Procedure, shortened: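 Human pancreatic carcinoma cells in RPMI 1640 with 10% FBS, seeded at 1.67E+04 cells/mL and left overnight, were treated with serially diluted compound for 72 h at 37° C, 5% CO2. Viability was read by CellTiter-Glo luminescence normalized to DMSO; IC50 came from a 4-parameter logistic fit.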

Chain of His-tagged KRAS G12D protein (P01116 other isoform, or with tags, fused parts or gaps G12D): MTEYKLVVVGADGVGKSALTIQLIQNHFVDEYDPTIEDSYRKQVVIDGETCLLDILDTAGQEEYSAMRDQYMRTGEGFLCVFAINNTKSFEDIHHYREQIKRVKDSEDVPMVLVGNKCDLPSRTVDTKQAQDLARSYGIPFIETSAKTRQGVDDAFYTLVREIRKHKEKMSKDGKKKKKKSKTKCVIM

## O=C1OCCCc2c(Cl)cc3[nH]ncc3c2-c2ncc3c(nc(OC[C@@]45CCCN4C[C@H](F)C5)nc3c2F)N2CC[C@H]3CCN1[C@H]3C2 [Example 177, (28S,32R)-18-chloro-33-fluoro-4-(((2R,7aS)-2-fluorotetrahydro-1H-pyrrolo[1,2-a]pyrrol-7a(5H)-yl)methoxy)-23-oxa-1,3,5,9,14,15,25-heptaazaheptacyclo[23.5.2.1~6,10~.0~2,7~.0~11,19~.0~12,16~.0~28,32~]tritriaconta-2,4,6,8,10(33),11,13,16,18-nonaen-24-one]
[1]
  pIC50: 8.52
[2]
  pIC50: 8.52
[3]; Homo sapiens, ASPC1, 2 h
  pIC50: 7.79
AsPC-1 cells; Homo sapiens, ASPC1, 72 h
  pIC50: 6.75
SW620 cells; Homo sapiens, SW-620
  pIC50: 7.41
MIA PaCa-2 cells; Homo sapiens
  pIC50: 7.00

## Fc1c2ncc3c(nc(OC[C@@]45CCCN4C[C@H](F)C5)nc13)N1CCC[C@]3(C1)C[C@H](C3)OCCCCc1c(Cl)cc3[nH]ncc3c1-2 [Example 260, (1S,3R)-10-Chloro-32-fluoro-24-(((2R,7aS)-2-fluorotetrahydro-1H-pyrrolo[1,2-a]pyrrol-7a(5H)-yl)methoxy)-4-oxa-13,14,19,23,25,27-hexaazaheptacyclo[25.3.1.1˜1,3˜.1˜18,22˜.0˜9,17˜.0˜12,16˜.0˜21,26˜]tritriaconta-9,11,14,16,18(32),19,21,23,25-nonaene bis(2,2,2-trifluoroacetate)]
[1]
  pIC50: 8.40
[2]
  pIC50: 8.70
[3]; 2 h
  pIC50: 8.49
AsPC-1 cells
  pIC50: 7.40
SW620 cells
  pIC50: 8.10
MIA PaCa-2 cells
  pIC50: 7.59

## O=C1OCCCc2c(Cl)cc3[nH]ncc3c2-c2ncc3c(nc(OC[C@@]45CCCN4C[C@H](F)C5)nc3c2F)N2CCOC[C@](CF)(C2)O1 [Example 311, (26S)-18-chloro-32-fluoro-26-(fluoromethyl)-4-(((2R,7aS)-2-fluorotetrahydro-1H-pyrrolo[1,2-a]pyrrol-7a(5H)-yl)methoxy)-23,25,28-trioxa-1,3,5,9,14,15-hexaazahexacyclo[24.4.1.1~6,10~.0~2,7~.0~11,19~.0~12,16~]dotriaconta-2,4,6(32),7,9,11,13,16,18-nonaen-24-one]
[1]
  pIC50: 8.30
[2]
  pIC50: 8.52
[3]; Homo sapiens, ASPC1, 2 h
  pIC50: 8.38
AsPC-1 cells; Homo sapiens, ASPC1, 72 h
  pIC50: 7.44
SW620 cells; Homo sapiens, SW-620
  pIC50: 8.22
MIA PaCa-2 cells; Homo sapiens
  pIC50: 8.15

## O=C1CCCCc2c(Cl)cc3[nH]ncc3c2-c2ncc3c(nc(OC[C@@]45CCCN4C[C@H](F)C5)nc3c2F)N2CCCC[C@H](C2)N1 [Example 65, (26R)-18-Chloro-32-fluoro-4-(((2R,7aS)-2-fluorotetrahydro-1H-pyrrolo[1,2-a]pyrrol-7a(5H)-yl)methoxy)-1,3,5,9,14,15,25-heptaazahexacyclo[24.4.1.1˜6,10˜.0˜2,7˜.0˜11,19˜.0˜12,16˜]dotriaconta-2,4,6,8,10(32),11,13,16,18-nonaen-24-one bis(2,2,2-trifluoroacetate)]
[1]
  pIC50: 8.22
[2]
  pIC50: 8.70
[3]; Homo sapiens, ASPC1, 2 h
  pIC50: 7.62
AsPC-1 cells; Homo sapiens, ASPC1, 72 h
  pIC50: 6.49
SW620 cells; Homo sapiens, SW-620
  pIC50: 7.28
MIA PaCa-2 cells; Homo sapiens
  pIC50: 6.80

## O=C1OCCCc2c(Cl)cc3[nH]ncc3c2-c2ncc3c(nc(OCC45CCCN4CCC5)nc3c2F)N2CCOC[C@H](C2)O1 [Example 198, (26S)-18-chloro-32-fluoro-4-(tetrahydro-1H-pyrrolo[1,2-a]pyrrol-7a(5H)-ylmethoxy)-23,25,28-trioxa-1,3,5,9,14,15-hexaazahexacyclo[24.4.1.1~6,10~.0~2,7~.0~11,19~.0~12,16~]dotriaconta-2,4,6,8,10(32),11,13,16,18-nonaen-24-one]
[1]
  pIC50: 8.70
[2]
  pIC50: 9.00
[3]; Homo sapiens, ASPC1, 2 h
  pIC50: 8.09
AsPC-1 cells; Homo sapiens, ASPC1, 72 h
  pIC50: 6.97
SW620 cells; Homo sapiens, SW-620
  pIC50: 7.85
MIA PaCa-2 cells; Homo sapiens
  pIC50: 7.80

## O=C1OCCCc2c(Cl)cc3[nH]ncc3c2-c2ncc3c(nc(OC[C@@]45CCCN4C[C@H](F)C5)nc3c2F)N2CCC[C@H](C2)O1 [Example 115]
[1]
  pIC50: 8.52
[2]
  pIC50: 9.00
[3]; Homo sapiens, ASPC1, 2 h
  pIC50: 8.00
AsPC-1 cells; Homo sapiens, ASPC1, 72 h
  pIC50: 7.22
SW620 cells; Homo sapiens, SW-620
  pIC50: 7.56
MIA PaCa-2 cells; Homo sapiens
  pIC50: 7.22

Source: patent publication US20240294551A1 (AMGEN INC., priority 2022, published 2024)
